Results published in patent US8916183B2, “Pesticidal compositions and processes related thereto” (priority 2012, dated 2014).
Like-named read-outs stand apart in the source and are kept apart here.

Experiments:
Type in all cases: in vivo
[1] = tested on: Beet Armyworm (BAW) (Spodoptera exigua); experiment: Bioassay on beet armyworm (BAW), 128-well diet tray assay; details: Spodoptera exigua, read-out: % Mortality BAW 50 μg/cm^2
[2] = tested on: Green Peach Aphid (GPA) (Myzus persicae); experiment: Bioassay on green peach aphid (GPA), foliar spray on cabbage seedlings; details: read-out: % Mortality GPA 200 ppm
Protocol: Certain molecules disclosed in this document were tested against GPA using procedures described in the following example. In the reporting of the results, the “GPA Rating Table” was used (See Table Section).
Cabbage seedlings grown in 3-inch pots, with 2-3 small (3-5 cm) true leaves, were used as test substrate. The seedlings were infested with 20-50 GPA (wingless adult and nymph stages) one day prior to chemical application. Four pots with individual seedlings were used for each treatment. Test compounds (2 mg) were dissolved in 2 mL of acetone/methanol (1:1) solvent, forming stock solutions of 1000 ppm test compound. […] A hand-held aspirator-type sprayer was used for spraying a solution to both sides of […] leaves until runoff. Reference plants (solvent check) were sprayed with the diluent only containing 20% by volume of acetone/methanol (1:1) solvent. Treated plants were held in a holding room for three days at approximately 25° C. and ambient relative humidity (RH) prior to grading. Evaluation was conducted by counting the number of live aphids per plant under a microscope. […] Corrected % Control=100*(X−Y)/X • where • X=No. of live aphids on solvent check plants and • Y=No. of live aphids on treated plants
The results are indicated in the table entitled “Table 5: Biological Results” (See Table Section).

[3] = tested on: Corn Earworm (CEW) (Helicoverpa zea); experiment: Bioassay on corn earworm (CEW), 128-well diet tray assay; details: Helicoverpa zea, read-out: % Mortality CEW 50 μg/cm^2
In short: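 Larvae in a 128-well diet tray were held at 25° C under 14:10 light-dark for five to seven days. Percent mortality was scored per well and averaged over eight wells, then reported on a rating scale.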

SMILES | mortality at 50 µg/cm2 ([1]; beet armyworm, 50 μg/cm^2) [%] | mortality at 200 ppm ([2]; green peach aphid, 200 ppm) [%] | mortality at 50 µg/cm2 ([3]; corn earworm, 50 μg/cm^2) [%] | mortality at 50 µg/cm2 [1] [%] | mortality at 200 ppm [2] [%] | mortality at 50 µg/cm2 [3] [%]
Cc1cccc(C)c1/N=C(/N/N=C/c1ccc(-c2ncn(-c3ccc(OC(F)(F)F)cc3)n2)cc1)SCOC(=O)C(C)C [Compound 25C] | 50 to 100 | 0 | 50 to 100 | – | – | –
COc1cc(C)c(/N=C(/N/N=C/c2ccc(-c3ncn(-c4ccc(OC(F)(F)F)cc4)n3)cc2)SCOC(=O)C(C)C)c(C)c1 [Compound 27C] | 50 to 100 | 0 to 80 | 50 to 100 | – | – | –
COc1cc(C)c(/N=C(/N/N=C/c2ccc(-c3ncn(-c4ccc(OC(F)(F)F)cc4)n3)cc2)SCOC(=O)CNC(=O)OCc2ccccc2)c(C)c1 [Compound 28C] | – | – | – | 50 to 100 | 0 to 80 | 50 to 100
CCOCC(=O)OCS/C(=N\c1c(C)cc(OC)cc1C)N/N=C/c1ccc(-c2ncn(-c3ccc(OC(F)(F)F)cc3)n2)cc1 [Compound 29C] | 50 to 100 | 0 to 80 | 50 to 100 | – | – | –
Cc1cccc(C)c1/N=C(/N/N=C/c1ccc(-c2ncn(-c3ccc(OC(F)(F)F)cc3)n2)cc1)SCOC(=O)CNC(=O)OC(C)(C)C [Compound 30C] | 50 to 100 | 0 to 80 | 50 to 100 | – | – | –
CC(=O)OCS/C(=N\c1c(C)cccc1C)N/N=C/c1ccc(-c2ncn(-c3ccc(OC(F)(F)F)cc3)n2)cc1 [Compound 31C] | 50 to 100 | 0 to 80 | 50 to 100 | – | – | –
COc1cc(Cl)c(/N=C(/N/N=C/c2ccc(-c3ncn(-c4ccc(OC(F)(F)F)cc4)n3)cc2)SCOC(=O)OC(C)C)c(Cl)c1 [Compound 33C] | 50 to 100 | 0 to 80 | 50 to 100 | – | – | –
Cc1cccc(C)c1/N=C(/N/N=C/c1ccc(-c2ncn(-c3ccc(OC(F)(F)F)cc3)n2)cc1)SCOC(=O)C1CCCC1 [Compound 35C] | 50 to 100 | 0 to 80 | 50 to 100 | – | – | –
Cc1cccc(C)c1/N=C(/N/N=C/c1ccc(-c2ncn(-c3ccc(OC(F)(F)F)cc3)n2)cc1)SCOC(=O)C(C)(C)C [Compound 36C] | 50 to 100 | 0 | 50 to 100 | – | – | –
COc1cc(C)c(/N=C(/N/N=C/c2ccc(-c3ncn(-c4ccc(OC(F)(F)C(F)(F)F)cc4)n3)cc2)SCOC(=O)C(C)C)c(C)c1 [Compound 37C] | 50 to 100 | 0 | 50 to 100 | – | – | –
COc1cc(C)c(/N=C(/N/N=C/c2ccc(-c3ncn(-c4ccc(OC(F)(F)F)cc4)n3)cc2)SCOC(=O)C(C)OCC(F)(F)F)c(C)c1 (stereo not drawn) [Compound 38C] | 50 to 100 | 0 | 50 to 100 | – | – | –
COc1cc(C)c(/N=C(/N/N=C/c2ccc(-c3ncn(-c4ccc(OC(F)(F)F)cc4)n3)cc2)SCOC(=O)C(C)(C)C)c(C)c1 [Compound 40C] | 50 to 100 | 0 to 80 | 50 to 100 | – | – | –
COCCOC(C)C(=O)OCS/C(=N\c1c(C)cccc1C)N/N=C/c1ccc(-c2ncn(-c3ccc(OC(F)(F)F)cc3)n2)cc1 (stereo not drawn) [Compound 41C] | 50 to 100 | 0 | 50 to 100 | – | – | –
COCCOC(C)C(=O)OCS/C(=N\c1c(C)cc(OC)cc1C)N/N=C/c1ccc(-c2ncn(-c3ccc(OC(F)(F)F)cc3)n2)cc1 (stereo not drawn) [Compound 42C] | 50 to 100 | 0 | 50 to 100 | – | – | –
COc1cc(C)c(/N=C(/N/N=C/c2ccc(-c3ncn(-c4ccc(OC(F)(F)F)cc4)n3)cc2)SCOC(=O)C2CCCC2)c(C)c1 [Compound 43C] | 50 to 100 | 0 to 80 | 50 to 100 | – | – | –
COc1cc(C)c(/N=C(/N/N=C/c2ccc(-c3ncn(-c4ccc(OC(F)(F)F)cc4)n3)cc2)SCOC(=O)C2CCCO2)c(C)c1 (stereo not drawn) [Compound 44C] | 50 to 100 | 0 | 50 to 100 | – | – | –
COc1cc(C)c(/N=C(\N/N=C/c2ccc(-c3ncn(-c4ccc(C(F)(F)F)cc4)n3)cc2)SCOC(=O)C(C)C)c(C)c1 [Compound 46C] | 50 to 100 | 0 | 50 to 100 | – | – | –

SMILES | mortality at 50 µg/cm2 ([1]; beet armyworm, 50 μg/cm^2) [%] | mortality at 200 ppm ([2]; green peach aphid, 200 ppm) [%] | mortality at 50 µg/cm2 ([3]; corn earworm, 50 μg/cm^2) [%] | mortality at 50 µg/cm2 [1] [%] | mortality at 200 ppm [2] [%] | mortality at 50 µg/cm2 [3] [%]
Cc1cccc(C)c1/N=C(/N/N=C/c1ccc(-c2ncn(-c3ccc(OC(F)(F)F)cc3)n2)cc1)SCC(=O)O [Compound 47C] | 50 to 100 | 0 to 80 | 50 to 100 | – | – | –
Cc1cccc(C)c1/N=C(/N/N=C/c1ccc(-c2ncn(-c3ccc(OC(F)(F)C(F)(F)F)cc3)n2)cc1)SCC(=O)O [Compound 49C] | 50 to 100 | 0 to 80 | 50 to 100 | – | – | –
COc1cc(C)c(/N=C(/N/N=C/c2ccc(-c3ncn(-c4ccc(OC(F)(F)C(F)(F)F)cc4)n3)cc2)SCC(=O)O)c(C)c1 [Compound 51C] | 50 to 100 | 0 | 50 to 100 | – | – | –
COc1ccc(C(C)/N=C(/N/N=C/c2ccc(-c3ncn(-c4ccc(OC(F)(F)F)cc4)n3)cc2)SCC(=O)O)cc1 (stereo not drawn) [Compound 52C] | 0 to 50 | 0 to 80 | 0 | – | – | –
COc1ccc(C(C)/N=C(/N/N=C/c2ccc(-c3ncn(-c4ccc(OC(F)(F)F)cc4)n3)cc2)SCC(=O)O)cc1F (stereo not drawn) [Compound 53C] | 0 to 50 | 0 to 80 | 0 | – | – | –
CC(/N=C(/N/N=C/c1ccc(-c2ncn(-c3ccc(OC(F)(F)F)cc3)n2)cc1)SCC(=O)O)c1ccccc1 (stereo not drawn) [Compound 54C] | 50 to 100 | 0 | 50 to 100 | – | – | –
Cc1cccc(C)c1/N=C(/N/N=C/c1ccc(-c2ncn(-c3ccc(OC(F)(F)F)cc3)n2)cc1)SCC(=O)NCC(C)C [Compound 55C] | 50 to 100 | 0 | 50 to 100 | – | – | –
Cc1cccc(C)c1/N=C(/N/N=C/c1ccc(-c2ncn(-c3ccc(OC(F)(F)F)cc3)n2)cc1)SCC(=O)N1CCN(C(=O)OC(C)(C)C)CC1 [Compound 57C] | 50 to 100 | 0 to 80 | 50 to 100 | – | – | –
Cc1cccc(C)c1/N=C(/N/N=C/c1ccc(-c2ncn(-c3ccc(OC(F)(F)F)cc3)n2)cc1)SCC(=O)NCCCNC(=O)OC(C)(C)C [Compound 58C] | 50 to 100 | 0 to 80 | 50 to 100 | – | – | –
Cc1cccc(C)c1/N=C(/N/N=C/c1ccc(-c2ncn(-c3ccc(OC(F)(F)F)cc3)n2)cc1)SCC(=O)NCC(NC(=O)OC(C)(C)C)C(=O)O (stereo not drawn) [Compound 59C] | 50 to 100 | 0 to 80 | 50 to 100 | – | – | –
COc1cc(C)c(/N=C(/N/N=C/c2ccc(-c3ncn(-c4ccc(OC(F)(F)F)cc4)n3)cc2)SCC(=O)NCCCNC(=O)OC(C)(C)C)c(C)c1 [Compound 60C] | 50 to 100 | 0 | 50 to 100 | – | – | –
Cc1cccc(C)c1/N=C(/N/N=C/c1ccc(-c2ncn(-c3ccc(OC(F)(F)F)cc3)n2)cc1)SCC(=O)NC[C@@H]1CCCNC1 [Compound 62C, (1Z,2E)-2-oxo-2-(((R)-piperidin-3-ylmethyl)amino)ethyl N-(2,6-dimethylphenyl)-2-(4-(1-(4-(trifluoromethoxy)phenyl)-1H-1,2,4-triazol-3-yl)benzylidene)hydrazinecarbimidothioate trifluoroacetic acid] | 50 to 100 | 0 to 80 | 50 to 100 | – | – | –
Cc1cccc(C)c1/N=C(/N/N=C/c1ccc(-c2ncn(-c3ccc(OC(F)(F)F)cc3)n2)cc1)SCC(=O)NCC(N)C(=O)O (stereo not drawn) [Compound 63C] | 50 to 100 | 0 | 50 to 100 | – | – | –
COc1cc(C)c(/N=C(/N/N=C/c2ccc(-c3ncn(-c4ccc(OC(F)(F)F)cc4)n3)cc2)SCC(=O)NCCCN)c(C)c1 [Compound 64C] | 50 to 100 | 0 | 50 to 100 | – | – | –
COc1cc(C)c(/N=C(/N/N=C/c2ccc(-c3ncn(-c4ccc(OC(F)(F)F)cc4)n3)cc2)SCC(=O)C2CCNCC2)c(C)c1 [Compound 65C] | 50 to 100 | 0 to 80 | 50 to 100 | – | – | –
Cc1cccc(C)c1/N=C(/N/N=C/c1ccc(-c2ncn(-c3ccc(OC(F)(F)F)cc3)n2)cc1)SCC(=O)NCCCN [Compound 66C] | 50 to 100 | 0 to 80 | 50 to 100 | – | – | –
Cc1cccc(C)c1/N=C(/N/N=C/c1ccc(-c2ncn(-c3ccc(OC(F)(F)F)cc3)n2)cc1)SCC(=O)N1CCNCC1 [Compound 67C] | 50 to 100 | 0 | 50 to 100 | – | – | –
